Results from EP4810038A1, “METHOD FOR TREATING ALK-POSITIVE OR ROS1-POSITIVE NON-SMALL CELL LUNG CANCER” (Shenzhen TargetRx Co., Ltd., priority 2023, dated 2025).
Like-named read-outs stand apart in the source and are kept apart here.

Test: Phase I clinical trial: pharmacokinetics after single and multiple oral administrations
Format: in vivo, human
Settings: for AR / Cmax / AUC / AUC(0-inf) / AUC(0-t) / half-life: GM (%CV); for Cmax / Tmax / AUC / AUC(0-inf) / AUC(0-t) / half-life: human, plasma, oral; for Tmax: Median (min-max); for AUC: read-out: AUC0-τ
Source text: The PK parameters for single-dose administration mainly include peak concentration (Cmax), time to peak concentration (Tmax), half-life (T1/2), systemic clearance (CL), volume of distribution (Vd), AUC0-t, and AUC0-∞. The PK parameters for multiple-dose administration mainly include the area under the steady-state plasma concentration-time curve (AUCss), steady-state peak plasma concentration (Cmax, ss), steady-state trough plasma concentration (Cmin, ss), and steady-state time to peak plasma concentration (Tmax, ss).
Approximately eight dose groups in total were set in the dose escalation phase, which were 5 (the starting dose), 10, 20, 40, 60, 80, 100, and 125 mg, respectively. Subjects in all the dose groups received a single dose on day 1 (D1), and the blood samples were collected for pharmacokinetic (PK) assay and tolerability observation. If no grade 2 or a higher-level adverse event related to the investigational drug occurred during the single-dose period (5 to 7 days) (if such events occurred, dose adjustments would be made based on the toxicity according to the protocol), the subject entered the multiple-dose period (i.e., treatment period) 5 to 7 days later (7 days after the first administration in the first dose group (i.e., starting the multiple-dose treatment on day 8), and the intervals for the subsequent dose groups were determined based on the obtained tolerability and PK data). After entering the multiple-dose period, the subjects in the first dose group were initially administered with the drug once daily (QD) (if the PK data for the single-dose period had been obtained, the administration frequency for the multiple-dose period could be determined based on the PK data). The administration frequency for the subjects in the subsequent dose groups after entering the multiple-dose period was determined based on the obtained PK and tolerability data. In this trial, the administration frequency for all the subjects could be adjusted throughout the trial based on the continuously acquired safety and PK data. The four lower dose groups (5 mg, 10 mg, 20 mg and 40 mg) used an accelerated titration design, with one subject enrolled in each dose group. If any grade 2 or a higher-level adverse event related to the investigational drug occurred, the "3+3" dose escalation method would be switched to. The 60 mg dose group and the subsequent dose groups followed a "3+3" dose escalation method, and the MTD was determined. After the evaluation of the 8th dose group, if the researcher and the sponsor agreed that a higher dose group might have better efficacy and manageable safety, then a higher dose could be explored (e.g., the 9th dose group and the 10th dose group, at 150 mg and 180 mg, respectively). During the dose escalation, if a dose group was confirmed to have a preliminary antitumor effect and manageable safety (e.g., no DLT occurred in 3 subjects or only 1 out of 6 subjects experienced DLT), the dose level could be expanded after a discussion and confirmation by the researcher and the sponsor.
All the subjects in the dose escalation phase and dose expansion phase of this research needed to undergo intensive blood collection for PK study of the compound A, and all the subjects needed to undergo a population PK study of the compound A.

[1] = Multiple administrations, 40 mg
[2] = Multiple administrations, 60 mg
[3] = Multiple administrations, 80 mg
[4] = Multiple administrations, 100 mg
[5] = Multiple administrations, 125 mg

[2H]C([2H])([2H])n1nc2c(c1C#N)-c1cnc(N)c(c1)O[C@H](C)c1cc(F)ccc1C(=O)N(C)C2 [compound A, (10R)-7-amino-12-fluoro-2-(methyl-d3)-10,16-dimethyl-15-oxo-10,15,16,17-tetrahydro-2H-8,4-(metheno)pyrazolo[4,3-h][2,5,11]benzoxadiazacyclotetradecine-3-carbonitrile]
AR [1]: 1.044(25 .1) [3]
AR [2]: 0.913(44.1 ) [3]
AR [3]: 1.256(45.9) [4]
AR [4]: 0.732(6 6.4) [3]
AR [5]: 0.606(36. 1) [3]
Cmax (40 mg, Multiple administrations, 40 mg, read-out: Cmax, SS): 387 ng/mL
Tmax (40 mg, Multiple administrations): 1 h
Cmax (40 mg, Single administration, 40 mg, read-out: Cmax): 392 ng/mL
Tmax (40 mg, Single administration): 0.98 h
Cmax (60 mg, Multiple administrations, 60 mg, read-out: Cmax, SS): 644 ng/mL
Tmax (60 mg, Multiple administrations): 0.533 h
Cmax (60 mg, Single administration, 60 mg, read-out: Cmax): 875 ng/mL
Tmax (60 mg, Single administration): 0.5 h
Cmax (80 mg, Multiple administrations, 80 mg, read-out: Cmax, SS): 589 ng/mL
Tmax (80 mg, Multiple administrations): 1.56 h
Cmax (80 mg, Single administration, 80 mg, read-out: Cmax): 524 ng/mL
Tmax (80 mg, Single administration): 0.7 h
Cmax (100 mg, Multiple administrations, 100 mg, read-out: Cmax, SS): 798 ng/mL
Tmax (100 mg, Multiple administrations): 1.97 h
Cmax (100 mg, Single administration, 100 mg, read-out: Cmax): 774 ng/mL
Tmax (100 mg, Single administration): 1.02 h
Cmax (125 mg, Multiple administrations, 125 mg, read-out: Cmax, SS): 987 ng/mL
Tmax (125 mg, Multiple administrations): 0.5 h
Cmax (125 mg, Single administration, 125 mg, read-out: Cmax): 1260 ng/mL
Tmax (125 mg, Single administration): 1.02 h
AUC [1]: 3880 ng·h/mL
AUC [2]: 5440 ng·h/mL
AUC [3]: 5500 ng·h/mL
AUC [4]: 7020 ng·h/mL
AUC [5]: 7700 ng·h/mL
AUC(0-inf) (Single administration, 40 mg): 4710 ng·h/mL
AUC(0-t) (Single administration, 40 mg): 4440 ng·h/mL
half-life (Single administration, 40 mg): 27.8 h
AUC(0-inf) (Single administration, 60 mg): 12200 ng·h/mL
AUC(0-t) (Single administration, 60 mg): 11300 ng·h/mL
half-life (Single administration, 60 mg): 33.6 h
AUC(0-inf) (Single administration, 80 mg): 10100 ng·h/mL
AUC(0-t) (Single administration, 80 mg): 9140 ng·h/mL
half-life (Single administration, 80 mg): 34.2 h
AUC(0-inf) (Single administration, 100 mg): 14600 ng·h/mL
AUC(0-t) (Single administration, 100 mg): 13800 ng·h/mL
half-life (Single administration, 100 mg): 30.5 h
AUC(0-inf) (Single administration, 125 mg): 18700 ng·h/mL
AUC(0-t) (Single administration, 125 mg): 17800 ng·h/mL
half-life (Single administration, 125 mg): 29.2 h
